Columns and labels:
Johnson grass = test: Test D Johnson grass; assay type: in vivo, Sorghum halepense; settings: Preemergence, 0 to 100 scale
Procedure, shortened: (§1)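 Visual injury ratings, 0 = no injury to 100 = complete control, taken 14 to 21 days after treatment. Test chemicals were in a surfactant-containing non-phytotoxic solvent; preemergence treatments went onto the sandy loam surface of seeded greenhouse pots within one day of sowing.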

itchgrass = test: Test D itchgrass; assay type: in vivo, Rottboellia exaltata; settings: Preemergence, 0 to 100 scale
Procedure, shortened: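 Scoring used a 0–100 visual injury scale, with 0 meaning no effect and 100 complete control, assessed 14–21 days after application alongside untreated pots. Preemergence treatments went onto sandy loam surfaces of separately potted seeds within a day of sowing.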

goosegrass = test: Test D goosegrass; assay type: in vivo, Eleusine indica; settings: Preemergence, 0 to 100 scale
Procedure, shortened: as §1

surinam grass = test: Test D surinam grass; assay type: in vivo, Brachiaria decumbens; settings: Preemergence, 0 to 100 scale
Procedure, shortened: as §1

purple nutsedge = test: Test D purple nutsedge; assay type: in vivo, Cyperus rotundus; settings: Preemergence, 0 to 100 scale
Procedure, shortened: as §1

dallisgrass = test: Test D dallisgrass; assay type: in vivo, Paspalum dilatatum; settings: Preemergence, 0 to 100 scale
Procedure, shortened: as §1

pitted morningglory = test: Test D pitted morningglory; assay type: in vivo, Ipomoea lacunosa; settings: Preemergence, 0 to 100 scale
Procedure, shortened: as §1

common groundsel = test: Test D common groundsel; assay type: in vivo, Senecio vulgaris; settings: Preemergence, 0 to 100 scale
Procedure, shortened: as §1

Green foxtail [1] = test: Test D green foxtail; assay type: in vivo
Procedure, shortened: as §1

Spanishneedles = test: Test D Spanishneedles; assay type: in vivo, Bidens bipinnata; settings: Preemergence, 0 to 100 scale
Procedure, shortened: as §1

common ragweed = test: Test D common ragweed; assay type: in vivo, Ambrosia elatior; settings: Preemergence, 0 to 100 scale
Procedure, shortened: as §1

Green foxtail [2] = test: Test D green foxtail; assay type: in vivo; settings: Preemergence, 0 to 100 scale
Procedure, shortened: as §1

common pursiane = test: Test D common purslane; assay type: in vivo, Portulaca oleracea; settings: Preemergence, 0 to 100 scale
Procedure, shortened: as §1

guineagrass = test: Test D guineagrass; assay type: in vivo, Panicum maximum; settings: Preemergence, 0 to 100 scale
Procedure, shortened: as §1

large crabgrass = test: Test D large crabgrass; assay type: in vivo, Digitaria sanguinalis; settings: Preemergence, 0 to 100 scale
Procedure, shortened: as §1

tall mallow = test: Test D tall mallow; assay type: in vivo, Malva sylvestris; settings: Preemergence, 0 to 100 scale
Procedure, shortened: as §1

sandbur = test: Test D sandbur; assay type: in vivo, Cenchrus echinatus; settings: Preemergence, 0 to 100 scale
Procedure, shortened: as §1

[3] = Rate 16 g/ha, 0 no injury, 100 complete control
[4] = Rate 32 g/ha, 0 no injury, 100 complete control
[5] = Rate 64 g/ha, 0 no injury, 100 complete control
[6] = Rate 125 g/ha, 0 no injury, 100 complete control
[7] = Rate 64 g/ha, Preemergence; 0 to 100 scale, 0 no injury, 100 complete control
[8] = Rate 125 g/ha, Preemergence; 0 to 100 scale, 0 no injury, 100 complete control

COc1ccccc1-n1c(=O)on(C(=O)N(c2ccc(F)cc2)C(C)C)c1=O [Compound 30]
0: Plant response rating, Johnsongrass (Johnson grass; [3]) | Plant response rating, Johnsongrass (Johnson grass; [4]) | Plant response rating, Johnsongrass (Johnson grass; [5]) | Plant response rating, Johnsongrass (Johnson grass; [6]) | Plant response rating, Johnsongrass (Johnson grass; Rate 250 g/ha) | Plant response rating, Purple nutsedge (purple nutsedge; [3]) | Plant response rating, Purple nutsedge (purple nutsedge; [4]) | Purple nutsedge plant response rating (purple nutsedge; [5]) | Purple nutsedge plant response rating (purple nutsedge; [6]) | Plant response rating, Purple nutsedge (purple nutsedge; Rate 250 g/ha) | Plant response rating, Purple nutsedge (purple nutsedge; Rate 500 g/ha) | Plant response rating, Dallisgrass (dallisgrass; [3]) | Plant response rating, Dallisgrass (dallisgrass; [4]) | Plant response rating, P. morninglory (pitted morningglory; [3]) | Plant response rating, P. morninglory (pitted morningglory; [4]) | Plant response rating, P. morninglory (pitted morningglory; [5]) | Plant response rating, P. morninglory (pitted morningglory; [6]) | Plant response rating, P. morninglory (pitted morningglory; Rate 250 g/ha) | Plant response rating, P. morninglory (pitted morningglory; Rate 500 g/ha) | Plant response rating, Com. groundsel (common groundsel; [3]) | Plant response rating, Com. groundsel (common groundsel; [4]) | Plant response rating, Com. groundsel (common groundsel; [5]) | Plant response rating, Com. groundsel (common groundsel; [6]) | Plant response rating, Com. groundsel (common groundsel; Rate 250 g/ha) | Plant response rating, Green foxtail (Green foxtail [1]; Preemergence; Rate 16 g/ha; 0 to 100 scale, 0 no injury, 100 complete control) | Plant response rating, Green foxtail (Green foxtail [1]; Rate 16 g/ha; Preemergence; 0 to 100 scale, 0 no injury, 100 complete control) | Plant response rating, Spanishneedles (Spanishneedles; [3]) | Plant response rating, Spanishneedles (Spanishneedles; [4]) | Spanishneedles plant response rating (Spanishneedles; [5]) | Spanishneedles plant response rating (Spanishneedles; [6]) | Plant response rating, Spanishneedles (Spanishneedles; Rate 500 g/ha) | Plant response rating, C. ragweed (common ragweed; [3]) | Plant response rating, C. ragweed (common ragweed; [4]) | Plant response rating, C. ragweed (common ragweed; [5]) | Plant response rating, C. ragweed (common ragweed; [6]) | Plant response rating, C. ragweed (common ragweed; Rate 250 g/ha) | Plant response rating, C. ragweed (common ragweed; Rate 500 g/ha) | Plant response rating, C. purslane (common pursiane; [3]) | Plant response rating, C. purslane (common pursiane; [4]) | Plant response rating, C. purslane (common pursiane; [5]) | Plant response rating, C. purslane (common pursiane; [6]) | Plant response rating, C. purslane (common pursiane; Rate 250 g/ha) | Plant response rating, C. purslane (common pursiane; Rate 500 g/ha) | Plant response rating, Tall Mallow (tall mallow; [3]) | Plant response rating, Tall Mallow (tall mallow; [4]) | Tall Mallow plant response rating (tall mallow; [5]) | Tall Mallow plant response rating (tall mallow; [6]) | Plant response rating, Tall Mallow (tall mallow; Rate 250 g/ha) | Plant response rating, Tall Mallow (tall mallow; Rate 500 g/ha) | Plant response rating, Sandbur (sandbur; [3]) | Plant response rating, Sandbur (sandbur; [4]) | Sandbur plant response rating (sandbur; [5])
40: Plant response rating, Johnsongrass (Johnson grass; Rate 500 g/ha) | Plant response rating, Itchgrass (itchgrass; [5]) | Plant response rating, Goosegrass (goosegrass; [4]) | Plant response rating, Surinam grass (surinam grass; [4]) | Surinam grass plant response rating (surinam grass; [5]) | Surinam grass plant response rating (surinam grass; [6]) | Plant response rating, Guineagrass (guineagrass; [5]) | Plant response rating, Large crabgrass (large crabgrass; [3]) | Plant response rating, Large crabgrass (large crabgrass; [4]) | Sandbur plant response rating (sandbur; [6]) | Plant response rating, Sandbur (sandbur; Rate 250 g/ha)
80: Plant response rating, Dallisgrass (dallisgrass; Rate 250 g/ha)
100: Plant response rating, Dallisgrass (dallisgrass; Rate 500 g/ha) | Plant response rating, Com. groundsel (common groundsel; Rate 500 g/ha) | Plant response rating, Green foxtail (Green foxtail [1]; Rate 250 g/ha; Preemergence; 0 to 100 scale) | Plant response rating, Green foxtail (Green foxtail [1]; Rate 500 g/ha, Preemergence; 0 to 100 scale) | Plant response rating, Green foxtail (Green foxtail [2]; Rate 250 g/ha) | Plant response rating, Green foxtail (Green foxtail [2]; Rate 500 g/ha) | Plant response rating, Large crabgrass (large crabgrass; Rate 500 g/ha) | Plant response rating, Sandbur (sandbur; Rate 500 g/ha)
85: Plant response rating, Goosegrass (goosegrass; [6]) | Plant response rating, Goosegrass (goosegrass; Rate 250 g/ha) | Plant response rating, Surinam grass (surinam grass; Rate 250 g/ha) | Plant response rating, Surinam grass (surinam grass; Rate 500 g/ha) | Green foxtail plant response rating (Green foxtail [1]; [7]) | Plant response rating, Green foxtail (Green foxtail [1]; [7]) | Green foxtail plant response rating (Green foxtail [1]; [8]) | Plant response rating, Green foxtail (Green foxtail [1]; [8]) | Plant response rating, Large crabgrass (large crabgrass; [5])
98: Plant response rating, Goosegrass (goosegrass; Rate 500 g/ha) | Plant response rating, Guineagrass (guineagrass; Rate 250 g/ha) | Plant response rating, Guineagrass (guineagrass; Rate 500 g/ha) | Plant response rating, Large crabgrass (large crabgrass; [6]) | Plant response rating, Large crabgrass (large crabgrass; Rate 250 g/ha)
60: Plant response rating, Dallisgrass (dallisgrass; [6])
20: Plant response rating, Itchgrass (itchgrass; [3]) | Plant response rating, Itchgrass (itchgrass; [4])
30: Plant response rating, Goosegrass (goosegrass; [3]) | Plant response rating, Guineagrass (guineagrass; [3]) | Plant response rating, Guineagrass (guineagrass; [4])
70: Plant response rating, Goosegrass (goosegrass; [5])
50: Plant response rating, Dallisgrass (dallisgrass; [5]) | Plant response rating, Green foxtail (Green foxtail [1]; Preemergence; Rate 32 g/ha; 0 to 100 scale, 0 no injury, 100 complete control)
75: Plant response rating, Itchgrass (itchgrass; [6]) | Plant response rating, Itchgrass (itchgrass; Rate 250 g/ha) | Plant response rating, Guineagrass (guineagrass; [6])
